This is an account of results in US12569170B2, “Paramagnetic sodium NMR macrocyclic-based biosensors, and associated methods” (Yale University, priority 2021, dated 2026).

For data set [1] the following is noted: doses presently being used for preclinical studies; cited from earlier work.
Data set [2] concerns rat brain bearing U251, RG2 or U87 tumors. Description: In vivo ^23Na-MRSI peak separation in tumor-bearing rat brain. The source says: Before TmDOTP^5− delivery, there was a single ^23Na peak at 0 ppm corresponding to Na^+T, observed ubiquitously both inside and outside the tumor. Upon TmDOTP^5− delivery, compartmental ^23Na peak separation was achieved. Within the tumor, the compromised BBB permitted greater TmDOTP^5− extravasation and accumulation in the interstitial space, explicitly yielding three separate ^23Na peaks emerging from the original single ^23Na resonance. […] In the tumor, the most-shifted peak was Na^+b because the blood compartment had the largest TmDOTP^5−, which was corroborated by removing blood samples from the animal and observing the same chemical shift in vitro (FIG. 2D). In the tumor, the intermediate peak in the middle corresponded to the interstitial Na^+e resonance (FIG. 2B). The splitting was also evident outside of the tumor (i.e., in healthy tissue) where TmDOTP^5− extravasated to a much lesser extent compared to tumor tissue (FIG. 2C). The Na^+b peak was still most-shifted, whereas the Na^+i and Na^+e peaks were less discernible. When there was significant overlap between adjacent peaks, instead of peak integrals the peak amplitudes were used to discriminate signals. The shifted bulk Na^+e peak in healthy tissue confirmed that whatever degree of TmDOTP^5− extravasation occurred was sufficient to affect the interstitial ^23Na signals, albeit less pronounced than tumoral Na^+e. The unshifted Na^+i resonance was still at 0 ppm, but partially eclipsed by the bulk Na^+e peak. These same patterns inside/outside the tumor were observed throughout the brain.
The in vivo protocol was approved by the Institutional Animal Care & Use Committee of Yale University, and all procedures were performed in accordance with these enforced guidelines and regulations, and in compliance with the ARRIVE guidelines. Rats (athymic/nude and Fischer 344) were purchased through Yale University vendors. U251, U87 and RG2 GBM cell lines were purchased from American Type Culture Collections (Manassas, VA, USA). The U251, U87, and RG2 cells were cultured and grown in a 5% CO2 incubator at 37° C. in either low-glucose (U251 cells) or high-glucose (U87 and RG2 cells) Dulbecco's Modified Eagle's Medium (DMEM) (Thermo Fisher Scientific, Waltham, MA, USA) with 10% fetal bovine serum (FBS) and 1% penicillin-streptomycin. Cells for tumor inoculation were harvested upon reaching at least 80% confluence and were prepared in FBS-free DMEM. Athymic/nude rats were injected intracranially with 2-5×10^6 tumor cells either from the U251 (n=6) or the U87 (n=8) cell line (5-μL aliquot) while placed in a stereotactic holder on a heating pad. Fischer 344 rats were injected with 1.25×10^3 RG2 cells (n=8). During the procedure, animals were anesthetized via isoflurane (Isothesia) inhalation (3-4%), purchased from Covetrus (Portland, ME, USA). Dissection was performed to the cranium, and a hole was drilled into the skull to allow for stereotactic needle insertion. Injections were performed using a 10-μL Hamilton syringe with a 26G needle into the right striatum for majority of the experiments, 3 mm to the right of the bregma and 3 mm below the dura. The cells were injected steadily at 1 μL/min over 5 min and the needle was left in place for an additional 5 min post-injection. The syringe was then gradually removed to preclude any backflow of cells. The hole in the skull was sealed with bone wax, and the incision site was sutured after removal of the syringe. Animals were given bupivacaine (2 mg/kg at incision site) and carprofen (5 mg/kg, subcutaneously) during the tumor inoculation to relieve pain. Carprofen was subsequently given once per day for two days post-inoculation.
Rats were weighed daily and kept on a standard diet of rat chow and water. Tumor growth was monitored every 3-4 days using ^1H-MRI under isoflurane anesthesia. When the tumor had reached a minimum mean diameter of 3 mm at 20-24 days post-injection, each animal was imaged using ^1H-MRI and ^23Na-MRSI. […]

The mark [3] stands for this setting: intravenous ~1 μmol/g, all tumors.
Setting [4] is: rats bearing RG2 and U87 tumors, tumor voxels.

Turning to `O=P([O-])([O-])CN1CCN(CP(=O)([O-])[O-])CCN(CP(=O)([O-])[O-])CCN(CP(=O)([O-])[O-])CC1.[Na+].[Na+].[Na+].[Na+].[Na+].[Tm+3]` [TmDOTP^5−, sodium thulium (III) 1,4,7,10-tetraazacyclododecane-1,4,7,10-tetrakis(methylenephosphonate)], the toxicity entry in data set [1] is “non-toxic”. The “observed ^23Na linewidths in vivo” value in data set [2] (after TmDOTP^5−) is on record as roughly 0.4 ppm. Besides, the “^23Na blood peak shift, in vitro analysis of blood samples” value in data set [2] (blood samples from the U251 tumor-bearing rat) was “around 2 ppm”. Besides, in data set [2] (from range of shifts observed and shiftability 2.77 ppm/mM), the “TmDOTP^5− concentration in the tumor vasculature” value is listed as “no more than 0.7 mM”. For the same compound, the “separation of blood and interstitial ^23Na peaks” value in data set [2] (intravenous ~1 μmol/g) is roughly 1.5 ppm. Further, in data set [2] (setting [3]), the “^23Na shift in blood” value was roughly 2 ppm and the “^23Na shifts in tumor tissue” value is on record as 0.5-1 ppm. Further, in data set [2] (rat bearing U251 tumor, after TmDOTP^5− delivery), the “^23Na shift of blood sodium (Na^+b) peak” value is “around 2 ppm”. Besides, the “^23Na shift of intracellular sodium (Na^+i) peak” value in data set [2] (rat bearing U251 tumor, ~1 μmol/g BW) came to 0 ppm. In data set [2] (rats bearing RG2 and U87 tumors), the “Na^+e shift in the tumor” value was 0.5-1 ppm. Moreover, in data set [2] (setting [4]), the “Na^+b shift” value is “around 2 ppm” and the “Na^+i shift” value is 0 ppm.
